# Experimental data taken from ChEMBL document CHEMBL1122214, “omicron-Quinone formation in the biochemical oxidation of the antitumor drug N2-methyl-9-hydroxyellipticinium acetate” (J Med Chem, 1983).
# Tests used:
# L1210 = test: In vitro antitumor activity against murine leukemia L1210 after 48 hour; assay type: functional; conditions: Mus musculus, L1210, 48 h; read-out: ID50 (the source's name)
# [1] = Compound was evaluated for its pKa (weak acid) value; assay type: physicochemical
compound,measurement,setting,value
Cc1c2c(c(C)c3c[n+](C)ccc13)C1=CC(=O)C=CC1=N2,IC50,L1210,0.05 µM
COC1=CC(=O)C(=O)c2c1nc1c(C)c3ccn(C)cc3c(C)c21,IC50,L1210,5.8 µM
Cc1c2cc[n+](C)cc2c(C)c2c3c([nH]c12)C=CC(=O)C3=O,pKa,[1],5.1
same,IC50,L1210,9.6 µM
